Results taken from patent EP4775036A2, “SYNERGISTIC FORMULATIONS FOR CONTROL AND REPELLENCY OF BITING ARTHROPODS” (Bedoukian Research, Inc., priority 2020, dated 2022).
“And” between values parts separate entries of the source, which are not always exact repeats. Equal values may be shown once.

What was measured:
Aedes aegypti = assay: Laboratory screening, modified K & D chamber (Gupta Box), treated blood-filled membrane wells; type: in vivo; conditions: adjusted, relative to control
Experimental: A modified K & D chamber or "Gupta Box" was used to screen 4 compounds plus an untreated control, simultaneously. Five replicates of 250 adult female mosquitoes each were placed in clear plastic cages (Gupta boxes) with access to five warmed, blood-filled, membrane-covered wells. The mosquitoes used were Aedes aegypti. Membranes were treated with repellent dilutions or diluent only. Five replicates were tested, rotating positions within the chamber. Each replicate used a fresh batch of mosquitoes, blood and treated membranes. The number of mosquitoes probing each well was recorded at two minute intervals for 20 minutes. The total numbers of probes on each well were tallied at the end of the observation period and the average percentage repellency relative to the control was calculated for each formulation. To compare formulations from different tests, the control probes were adjusted to 100 for each test and the formula then applied to each formulation to adjust accordingly. For laboratory testing, additive repellency was determined by adding the adjusted percent repellency for each dose used in the combination treatment. This "Expected additive repellency" was then compared to the "actual repellency" seen when the combination was tested in the Gupta box.

Aedes aegypti mosquitoes = assay: Arm in cage testing (Modified WHO - Nigel Hill protocol), dose response curves on human subjects, LDP line analysis; type: in vivo; conditions: for Index: ED50 comparison of LDP lines, lowest ED50 = 100; for RR: ED50 relative to the line with the lowest ED50
Experimental: A Modified WHO - Nigel Hill protocol was used for Dose Response curve generation. Three concurrent repetitions were conducted with 4 subjects (2 male, 2 female). Approximately 60 non blood-fed, female Aedes aegypti mosquitoes were placed in a 12"X12"X12" (28316.85 cm^3) plexi and screen cage.
Arms were inserted into the first cage for 30 seconds, with number of landings (with intent to bite) recorded at the end of the time interval. The same procedure was used for the 2nd and 3rd cage in succession. Control arm was inserted first, followed by the opposite arm treated with ethanol only (as a treatment control). The 'treatment arm' is then treated with dose 1 and inserted, then dose 2, dose 3, and so on. After complete protection was achieved, control arm was reinserted to verify continued activity.
Percent repellency was calculated by utilizing the formula [{(C-T)/C}*100]. Where C = the number of mosquitoes landing with intent to bite on the ethanol only treated arm, and T = the number of mosquitoes landing with intent to bite on the 'repellent' treated arm. LDP line® software (Bakr, E 2007) was used to determine ED50 (effective dose to repel 50%) and compare materials.
Following the Definition of Synergy (the interaction or cooperation of two or more organizations, substances, or other agents to produce a combined effect greater than the sum of their separate effects), an 'additive measure' was used to determine synergy in the laboratory testing, as well as in the human testing. […] Significance was determined by the use of 95% confidence intervals.
For human testing, the LDP Line software was used to determine "additive repellency" differences.

[1] = 0.5% of the compound alone on membrane
[2] = human arm in cage, compound alone
[3] = 1% of the compound alone on membrane
[4] = PMD Combinations, calculations based on PMD dose
[5] = human arm in cage, PMD dose, PMD alone or in the combination (calculations based on PMD dosage)
[6] = DEET Combinations, calculations based on DEET dose
[7] = human arm in cage, DEET dose, DEET alone or in the combination (calculations based on DEET dosage)

Compound: CC(=O)CCC=C(C)CCC=C(C)C [Geranyl Acetone, 6,10-dimethyl-5,9-undecadien-2-one]
- percent repellency (Aedes aegypti; [1]): 26.7% and 26.69%
- % Repelled (Aedes aegypti mosquitoes; Geranyl Acetone alone at Dose 0.736 % Active (its ED25)): 25%
- ED25, Dose (% Geranyl Acetone) (Aedes aegypti mosquitoes; [2]): 0.736 % Geranyl Acetone
- ED50, Dose (% Geranyl Acetone) (Aedes aegypti mosquitoes; [2]): 2.831 % Geranyl Acetone
- ED75, Dose (% Geranyl Acetone) (Aedes aegypti mosquitoes; [2]): 10.889 % Geranyl Acetone
- ED90, Dose (% Geranyl Acetone) (Aedes aegypti mosquitoes; [2]): 36.608 % Geranyl Acetone
- ED95, Dose (% Geranyl Acetone) (Aedes aegypti mosquitoes; [2]): 75.631 % Geranyl Acetone

Compound: CC(O)C(=O)O (centres unmarked) [Lactic Acid, Lactic acid]
- % Repelled (Aedes aegypti mosquitoes; Lactic Acid alone at Dose 2.7938 % Active (its ED25)): 25%
- ED25, Dose (% Lactic Acid) (Aedes aegypti mosquitoes; [2]): 2.794 % Lactic Acid
- ED50, Dose (% Lactic Acid) (Aedes aegypti mosquitoes; [2]): 6.143 % Lactic Acid
- ED75, Dose (% Lactic Acid) (Aedes aegypti mosquitoes; [2]): 13.51 % Lactic Acid
- ED90, Dose (% Lactic Acid) (Aedes aegypti mosquitoes; [2]): 27.45 % Lactic Acid
- ED95, Dose (% Lactic Acid) (Aedes aegypti mosquitoes; [2]): 41.96 % Lactic Acid

Compound: CC1CCC(C(C)(C)O)C(O)C1 (centres unmarked) [PMD, para-menthane-3,8-diol]
- percent repellency (Aedes aegypti; [3]): 26.35% and 26.4%
- percent repellency (Aedes aegypti; 1.5% of the compound alone on membrane): 34.6%
- ED90 (%AI) (Aedes aegypti mosquitoes; [4]): 3.846 %AI
- Index (Aedes aegypti mosquitoes; [4]): 4.36
- RR (Aedes aegypti mosquitoes; [4]): 22.94
- % Repelled (Aedes aegypti mosquitoes; PMD alone at Dose 0.1275 % Active (its ED25)): 25%
- ED25, Dose (% PMD) (Aedes aegypti mosquitoes; [5]): 0.128 % PMD and 0.1275 % PMD
- ED50, Dose (% PMD) (Aedes aegypti mosquitoes; [5]): 0.4128 % PMD and 0.413 % PMD
- ED75, Dose (% PMD) (Aedes aegypti mosquitoes; [5]): 1.3362 % PMD
- ED90, Dose (% PMD) (Aedes aegypti mosquitoes; [5]): 3.8464 % PMD
- ED95, Dose (% PMD) (Aedes aegypti mosquitoes; [5]): 7.2415 % PMD

Compound: CCCCCCCCC1CCC(=O)O1 (centres unmarked) [Gamma Dodecalactone, gamma-dodecalactone]
- % Repelled (Aedes aegypti mosquitoes; Gamma Dodecalactone alone at Dose 0.4177 % Active (its ED25)): 25%
- ED25, Dose (% γ Dodecalactone) (Aedes aegypti mosquitoes; [2]): 0.4177 % γ Dodecalactone
- ED50, Dose (% γ Dodecalactone) (Aedes aegypti mosquitoes; [2]): 1.8022 % γ Dodecalactone
- ED75, Dose (% γ Dodecalactone) (Aedes aegypti mosquitoes; [2]): 7.7764 % γ Dodecalactone
- ED90, Dose (% γ Dodecalactone) (Aedes aegypti mosquitoes; [2]): 28.994 % γ Dodecalactone
- ED95, Dose (% γ Dodecalactone) (Aedes aegypti mosquitoes; [2]): 63.726 % γ Dodecalactone

Compound: CCN(CC)C(=O)c1cccc(C)c1 [DEET, N,N-Diethyl-m-toluamide]
- percent repellency (Aedes aegypti; [1]): 29.55%
- percent repellency (Aedes aegypti; [3]): 52.9%
- ED90 (%AI) (Aedes aegypti mosquitoes; [6]): 1.443 %AI
- Index (Aedes aegypti mosquitoes; [6]): 10.32
- RR (Aedes aegypti mosquitoes; [6]): 9.69
- % Repelled (Aedes aegypti mosquitoes; DEET alone at Dose 0.0351 % Active (its ED25)): 25%
- ED25, Dose (% DEET) (Aedes aegypti mosquitoes; [7]): 0.035 % DEET and 0.0351 % DEET
- ED50, Dose (% DEET) (Aedes aegypti mosquitoes; [7]): 0.1263 % DEET and 0.126 % DEET
- ED75, Dose (% DEET) (Aedes aegypti mosquitoes; [7]): 0.4552 % DEET
- ED90, Dose (% DEET) (Aedes aegypti mosquitoes; [7]): 1.4431 % DEET
- ED95, Dose (% DEET) (Aedes aegypti mosquitoes; [7]): 2.8783 % DEET
